Assay results: PubChem BioAssay AID743333 (Broad Institute, 2014)
Activity calls are given as the source filed them.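 Rule for the calls: active = signal falls with dose and an IC50 can be fitted at or below twice the top valid tested dose; inconclusive = flat fit showing 30 to 70% loss, or poor fit; inactive = activity in the rising direction, plus the rest.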

Tested on: not listed separately
Test: A549 viability loss, ATP readout – cell-based, plate reader, dry powder, set 8, cytotoxicity control, dose response (AID 743333)
Conditions: A549 viability, CellTiter-Glo ATP luminescence, 72 h; at 15 µM (top of the series)

Structure (SMILES)	activity change, negative = cytotoxicity
COc1ccc2sc(NC(=O)c3cc(S(=O)(=O)N(C)C)ccc3N3CCCC3)nc2c1	8.3% (inactive)
CN(C)S(=O)(=O)c1ccc(N2CCCC2)c(C(=O)Nc2nccs2)c1	1.36% (inactive)
Cc1cnc(NC(=O)c2cc(S(=O)(=O)N(C)C)ccc2C2CCCC2)s1	0.274% (inactive)
CN(C)CCCN(Cc1cc2ccccc2[nH]c1=O)C(=O)NCc1ccccc1	-4.79% (inactive)
CN(C)S(=O)(=O)c1ccc(N2CCCC2)c(C(=O)Nc2ccccc2)c1	-5.56% (inactive)
CN(C)S(=O)(=O)c1ccc(N2CCCC2)c(C(=O)Nc2nc3ccccc3s2)c1	-13.7% (inactive)
CN(C)S(=O)(=O)c1ccc(N2CCCC2)c(C(=O)Nc2cccc(F)c2)c1	-8.14% (inactive)
Cc1cnc(NC(=O)c2cc(S(=O)(=O)N3CCCCC3)ccc2N2CCCC2)s1	9.07% (inactive)
Cc1csc(NC(=O)c2cc(S(=O)(=O)N(C)C)ccc2N2CCCC2)n1	-6.7% (inactive)
COc1ccc2nc(NC(=O)c3cc(S(=O)(=O)N(C)C)ccc3N3CCCC3)sc2c1	-4.45% (inactive)
Cc1cnc(NC(=O)c2cc(S(=O)(=O)N3CCOCC3)ccc2N2CCCC2)s1	-9.98% (inactive)
CN(C)CCCN(Cc1cc2ccccc2[nH]c1=O)C(=O)Nc1ccccc1	2.4% (inactive)
Cc1cnc(NC(=O)c2cc(S(=O)(=O)N(C)C)ccc2N(C)C)s1	-6.64% (inactive)
Cc1cnc(NC(=O)c2cc(S(=O)(=O)N(C)C)ccc2N2CCCC2)s1	-12% (inactive)
Cc1cnc(NC(=O)c2cc(S(=O)(=O)N3CCCC3)ccc2N2CCCC2)s1	0.402% (inactive)
Cc1ccc(NC(=O)c2cc(S(=O)(=O)N(C)C)ccc2N2CCCC2)cc1	-13.5% (inactive)
COc1cccc2sc(NC(=O)c3cc(S(=O)(=O)N(C)C)ccc3N3CCCC3)nc12	-2.59% (inactive)
Cc1cnc(NC(=O)c2cc(S(=O)(=O)N(C)C)ccc2N2CCC2)s1	-8.88% (inactive)

Tested on: A549 viability, CellTiter-Glo ATP luminescence, 72 h
Test: as above
Conditions: not given

Structure (SMILES)	IC50
CCN(CC)c1ccc(S(=O)(=O)N(C)C)cc1C(=O)Nc1ncc(C)s1	> 30 µM (inactive)
